Data reported in article PMC12412326, “Cloning and Functional Characterization of a Novel Brevinin-1-Type Peptide from Sylvirana guentheri with Anticancer Activity” (Current Issues in Molecular Biology, 2025).
Read-outs that look alike come from different tables or passages of the source. Ends that are not written are not given here. Peptide text beside a SMILES is read from it.

How the values were obtained:
[1] = system: A549 (lung) cells; type: cell-based, human; conditions: 72 h
Method: (§1) The cytotoxic effects of brevinin-1 E8.13 were evaluated in six human cancer cell lines: A549 (lung), AGS (stomach), Jurkat (blood), HCT116 (colon), HL60 (blood), and HepG2 (liver). All cell lines were cultured in either DMEM or RPMI-1640 medium supplemented with 10% fetal bovine serum (FBS) and 1% penicillin–streptomycin, under conditions of 5% CO2 at 37 °C. The 3-(4,5-dimethylthiazol-2-yl)-2,5-diphenyltetrazolium bromide (MTT) assay was used to assess cell viability. Cells were seeded at a density of 10^4 cells per well in 96-well plates and incubated at 37 °C. After 72 h of treatment with the peptide, 10 µL of MTT reagent (Merck, Darmstadt, Germany) in PBS, pH 7.0 was added to each well and incubated for 4 h. Following supernatant removal, 100 µL of dimethyl sulfoxide (DMSO, Merck, Germany) was added to dissolve the resulting formazan crystals. Absorbance was measured at 570 nm using a microplate reader. Each experimental condition was performed in triplicate. The cytotoxicity of the peptide was also evaluated in normal human dermal fibroblast cells using the same assay.

[2] = system: Jurkat (blood) cells; type: cell-based, human; conditions: 72 h
Method: as §1

[3] = system: HL60 (blood) cells; type: cell-based, human; conditions: 72 h
Method: as §1

[4] = system: HCT116 (colon) cells; type: cell-based, human; conditions: 72 h
Method: as §1

[5] = system: AGS (stomach) cells; type: cell-based, human; conditions: 72 h
Method: as §1

[6] = system: HepG2 (liver) cells; type: cell-based, human; conditions: 72 h
Method: as §1

[7] = system: human cancer cell lines (A549, AGS, Jurkat, HCT116, HL60, HepG2); type: cell-based
Method: as §1

[8] = system: Bacillus subtilis; type: cell-based
Method: (§2) The antibacterial activity of brevinin-1 E8.13 was evaluated against six bacterial strains, including two Gram-positive species (Staphylococcus aureus and Bacillus subtilis) and four Gram-negative species (Escherichia coli, Acinetobacter baumannii, Klebsiella pneumoniae, and Pseudomonas aeruginosa). All strains were isolated and identified by the Department of Microbiology, Thanh Nhan Hospital (Hanoi, Vietnam), and are currently maintained at the Laboratory of Cell Biotechnology and Bioassay, Institute of Biology, Vietnam Academy of Science and Technology (VAST).
(§3) Each bacterial strain was first cultured overnight in Luria–Bertani (LB) broth. Then, 100 μL of the overnight culture was transferred to 5 mL of fresh LB broth and incubated at 37 °C with shaking until reaching the logarithmic growth phase. Cultures were adjusted to a concentration of 10^6 colony-forming units (CFU)/mL and dispensed into 96-well plates. The peptide was added at final concentrations ranging from 24.8 μM to 0.4 μM. After 24 h of incubation at 37 °C, bacterial growth was quantified by measuring optical density (OD) at 600 nm using a Synergy HT microplate reader (BioTek, Winooski, VT, USA). All concentrations were tested in triplicate.

[9] = system: Escherichia coli; type: cell-based
Method: as §2, §3

[10] = system: Staphylococcus aureus; type: cell-based; conditions: for MIC S. aureus: 24 h
Method: as §2, §3

[11] = Circular dichroism, secondary structure estimated with CDNN 2.1; type: physicochemical; conditions: 0.3 mg/mL in deionized water, CDNN 2.1, 190–260 nm range
Method: The CD spectrum of the peptide brevinin-1 E8.13 was measured to evaluate its secondary structure. The peptide was dissolved in deionized water at a concentration of 0.3 mg/mL. Measurements were performed using a ChiraScan™ Circular Dichroism Spectrometer (Applied Photophysics, Leatherhead, Surrey, UK) with a quartz cuvette of 1 mm path length. The CD spectra were recorded over a wavelength range of 180–260 nm using the default instrument settings recommended by the manufacturer (scanning speed, integration time, and bandwidth). Each sample was measured three consecutive times, and the solvent-corrected average spectrum was used for analysis. The resulting spectra were processed using the CDNN 2.1 (Circular Dichroism Neural Network) software to estimate the proportions of secondary structural elements, including α-helix, β-sheet, β-turn, and random coil.

[12] = system: Klebsiella pneumoniae; assay: Antibacterial activity (MIC, broth dilution in 96-well plates); type: cell-based; conditions: LB broth, 10^6 CFU/mL, 24 h at 37 °C, OD 600 nm, triplicate
Method: as §2, §3

[13] = system: Pseudomonas aeruginosa; assay: as above; type: cell-based; conditions: LB broth, 10^6 CFU/mL, 24 h at 37 °C, OD 600 nm, triplicate
Method: as §2, §3

[14] = system: Acinetobacter baumannii; assay: as above; type: cell-based; conditions: LB broth, 10^6 CFU/mL, 24 h at 37 °C, OD 600 nm, triplicate
Method: as §2, §3

[15] = LB broth, 10^6 CFU/mL, 24 h at 37 °C, OD 600 nm, triplicate

CC[C@H](C)[C@H](NC(=O)[C@H](C)NC(=O)[C@H](C)NC(=O)[C@@H]1CCCN1C(=O)[C@@H](NC(=O)[C@H](CC(C)C)NC(=O)[C@H](CCCCN)NC(=O)[C@H](CO)NC(=O)[C@H](C)NC(=O)[C@@H](NC(=O)[C@H](CCCCN)NC(=O)[C@H](Cc1ccccc1)NC(=O)[C@H](CC(C)C)NC(=O)[C@H](C)NC(=O)CNC(=O)[C@H](CC(C)C)NC(=O)[C@@H](N)Cc1ccccc1)C(C)C)C(C)C)C(=O)N[C@@H](CS)C(=O)N[C@@H](CO)C(=O)N[C@@H](Cc1ccccc1)C(=O)N[C@@H](CO)C(=O)N[C@@H](CCCCN)C(=O)N[C@@H](CCCCN)C(=O)N[C@@H](CS)C(N)=O [Brevinin-1 E8.13] (H-FLGALFKVASKLVPAAICSFSKKC-NH2; N-terminus assumed)
IC50 [1]: 31.6 µM
IC50 [2]: 12.9 µM
IC50 [3]: 14.8 µM
IC50 [4]: 9.2 µM
IC50 [5]: 7.5 µM
IC50 [6]: 11.7 µM
IC50 ([7]; 72 h): 7.5 to 14.8 µM
Selectivity Index (SI) toward cancer cells ([7]; SI = IC50 (HDF) or HC50 / IC50 (cancer cells), result in words): moderate selectivity
MIC B. subtilis [8, 15]: > 24.8 µM
MIC E. coli [9, 15]: > 24.8 µM
MIC S. aureus [10]: 1.5 µM
Selectivity Index (SI) toward Staphylococcus aureus over normal cells ([10]; SI = IC50 (HDF) or HC50 / MIC, result in words): high selectivity (SI > 10 reflects high selectivity)
Antiparallel β-sheet content (CD) [11]: 36.2%
Random coil content (CD) [11]: 27.74%
α-helix content (CD) [11]: 11.83%
β-turn content (CD) [11]: 15.48%
MIC K. pneumonia [12]: > 24.8 µM
MIC P. aeruginosa [13]: > 24.8 µM
MIC A. baumanii [14]: > 24.8 µM

FAKWAFKWLKK-NH2 [GA-K4AL, reference compound]
MIC B. subtilis ([8]; 24 h): >41.8 µM
MIC E. coli ([9]; 24 h): 10.1 µM
MIC S. aureus [10]: 2.5 µM
